Assay results as given in patent US20190336579A1, “COMPOSITIONS AND METHODS TO INDUCE TARGETED APOPTOSIS BY MODULATING PROTEIN TYROSINE PHOSPHATASE 13 (PTPN13)” (National Jewish Health, priority 2010, published 2019).

Legend:
PTPN13 protein = PTPN13 protein expression by Western blot in lung fibroblasts; assay type: cell-based, human; conditions: normal, fibrotic and MRC5 fibroblasts; TNF-α 10 ng/ml, IFN-γ 50 U/ml; 36 hours
Description: (§1) To assess the effects of these cytokines on PTPN13 expression, non-diseased normal human lung fibroblasts (NHLF), fibrotic human lung fibroblasts (FHLF) and a fetal lung fibroblast cell line, MRC5 cells, were treated with TNF-α (10/ng/ml), IFN-γ (50 U/ml) or with both cytokines for 6 hours. PTPN13 expression was measured by quantitative PCR (FIG. 2A). The primary lung fibroblasts from normal and fibrotic lung had equivalent levels of PTPN13 expression to the MRC5 lung fibroblast cell line. […] Treatment with TNF-α alone caused a 40% decrease in PTPN13 expression. Combined exposure to TNF-α and IFN-γ decreased PTPN13 mRNA expression by 80%. Protein lysates from normal, fibrotic and MRC5 fibroblasts treated for 36 hours with TNF-α (10/ng/ml), IFN-γ (50 U/ml) or with both cytokines were then analyzed for PTPN13 expression. […]
In one exemplary method, to assess whether PTPN13 expression prevents Fas-induced apoptosis, PTPN13 expression was knocked-down using siRNA. […] Apoptosis was assayed by quantifying activation of caspase-3 and caspase-8 (FIG. 3C).
FIG. 3: Decreased PTPN13 expression sensitizes fibroblasts to Fas-induced apoptosis. […] PTPN13 expression was quantified by western blot analysis and densitometry was performed. […] Fas activating antibody (250 ng/ml) (Fas activating antibody) or PBS (unstimulated) was added for 2 hours before analyzing Caspase-8 activation by a fluorescence-based assay. […]

PTPN13 mRNA = PTPN13 mRNA expression by quantitative PCR in lung fibroblasts; assay type: cell-based, human; conditions: NHLF, FHLF and MRC5 cells; TNF-α 10 ng/ml, IFN-γ 50 U/ml; 6 hours; compared to untreated cells
Description: as §1
FIG. 2: TNF-α and IFN-γ decrease PTPN13 expression. […] Top panel is a quantitative RT-PCR analysis of PTPN13 mRNA lower panel is a Western blot analysis for PTPN13 protein. […] Caspase-8 was measured using a fluorescence based assay.
Total RNA was obtained from 1×10^6 MRC5 cells using the Qiagen RNA Miniprep Kit (Qiagen) following the manufacturer's instructions. […] The fluorescence values of the threshold cycles were collected and normalized to GAPDH. Data are expressed as the relative change in mRNA expression compared to the untreated control.

[1] = Bleomycin murine model of fibrosis, mortality; assay type: in vivo, mice; conditions: 2.5 U/kg bleomycin into the trachea
Description: To assess the effect of PTPN13 on development of fibrosis in vivo, we used a murine model of fibrosis in a PTPN13−/− mouse. The PTPN13−/− mouse has been characterized by Grusby to have abnormal STAT4 signaling which leads to augmented skewing toward TH1 or TH2 phenotypes. 2.5 U/kg bleomycin was administered directly into the tracheas of PTPN13−/− mice along with wildtype controls. […] Due to drastic weight decreases in the wildtype mice, two weeks was chosen as the end time point. […] Of the 20 wildtype mice treated with bleomycin, 11 (55%) died before two weeks as compared to the PTPN13−/− mice where three of the 20 (15%) died. Saline had no effect on mortality. Then static compliance was measured. […] Collagen content was measured in the lung using a hydroxyproline assay. […] To determine a possible cause for the decreased static compliance in the PTPN13−/− mice, we also measured other markers of lung disease, such as cellular infiltration and capillary leak. We measured the cellularity of the bronchoalveolar fluid (BALF). […] Capillary leak was determined by albumin present in the BALF (FIG. 6F). […] To validate these findings, stereology was performed on lung sections to quantify presence of collagen and diseased areas. […] Percentage of diseased lung was also measured by stereology. […]
FIG. 6: Deficiency of PTPN13−/− Leads to Decreased Bleomycin-induced Lung Fibrosis. […] Collagen content as measured by stereology. […]

Substance	PTPN13 protein expression (Western blot) (PTPN13 protein)	decrease in PTPN13 mRNA expression (PTPN13 mRNA)	mortality before two weeks ([1]; PTPN13−/− mice, three of 20 died) [%]	mortality before two weeks ([1]; wildtype mice, 11 of 20 died) [%]
IFN-γ: Recombinant human IFN-γ purchased from R&D Systems	not decreased	minimal decrease		
TNF-α	decreased	40%		
bleomycin			15	55
